From US20240294519A1, “PYRROLO[2,3-b]PYRIDINE PGDH INHIBITORS AND METHODS OF MAKING AND USING” (EPIRIUM BIO INC., priority 2021, published 2024)
Several values for one entry are separate records, joined by “and”; a condition that tells them apart may be missing. Equal entries are not always repeated.

Columns and labels:
[1] = target: T1, 15-PGDH (Homo sapiens, UniProt P15428); test: A549 cell based assay: PGE2 in supernatant after IL-1β (HTRF); details: A549 cells, fold induction of PGE2, IL-1β plus test article versus IL-1β only
T1 construct: 15-PGDH is highly expressed in resting human lung adenocarcinoma cells (A549); endogenous in cells; host or cells: A549
T1 sequence (P15428 1-266): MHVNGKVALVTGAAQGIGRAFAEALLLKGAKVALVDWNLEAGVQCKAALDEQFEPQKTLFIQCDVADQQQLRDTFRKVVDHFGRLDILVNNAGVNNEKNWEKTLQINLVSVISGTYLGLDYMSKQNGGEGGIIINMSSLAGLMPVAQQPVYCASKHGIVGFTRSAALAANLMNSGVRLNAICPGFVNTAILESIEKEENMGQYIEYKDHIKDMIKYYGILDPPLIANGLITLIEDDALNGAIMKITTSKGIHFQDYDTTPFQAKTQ
Protocol: Cell Based Assay: 15-PGDH is highly expressed in resting human lung adenocarcinoma cells (A549) (Tong et al., 2006), and this cell line was used to assess 15-PGDH inhibition by MF-300Na in vitro.
In this assay, A549 cells are treated with interleukin (IL) 1β, which induces the expression of cycloxygenase-2 and the synthesis of PGE2 (Tong et al., 2006). In the studies evaluating test articles, thirty thousand A549 cells were seeded in 100 μL F12K completed media and incubated for 24 hours at 37° C. with 5% CO2 before being serum-starved for 24 hours. On the day of the experiment, buffer was changed to complete medium, and cells were incubated for 30 minutes with compounds prior to the addition of IL-1β (final concentration of 0.1-0.25 ng/mL) overnight at 37° C. with 5% CO2. Each concentration was run in triplicate. […] The PGE2 in the supernatant was detected and quantified using a Cisbio HTRF technology (Homogeneous Time-Resolved Fluorescence) kit (62P2APEG-62P2APEH) according to the manufacturer's recommendations, quantifying the fold induction of PGE2 of cells treated with IL-1β plus test article, versus treatment with IL-1β only.

[2] = target: T2, 15-PGDH/HPGD (Homo sapiens, UniProt P15428); test: hPGDH inhibitor screening biochemical assay; details: 10 nM enzyme, 15 μM PGE2, 0.25 mM NAD, fluorescence ex/em 340/485 nm
T2 construct: purchased R&D System 5660-DH
T2 sequence (P15428 1-266): T1 sequence (P15428 1-266)
Outline: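 Recombinant human 15-PGDH (10 nM) was preincubated with compound for 10 min at 37° C in 50 mM Tris-HCl pH 7.5 with 0.01% Tween 20. Reaction with 15 μM PGE2 and 0.25 mM NAD+ ran 10 min at room temperature, read by fluorescence at ex/em 340/485 nm. IC50 was derived from 10-point curves, relative to 1% DMSO.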

| PGE2 - HTRF over IL-β induction at 0.001 μM [1] | PGE2 - HTRF over IL-β induction at 0.01 μM [1] | PGE2 - HTRF over IL-β induction at 0.1 μM [1] | PGE2 - HTRF over IL-β induction at 1 μM [1] | IC50 [2] [µM] | Structure (SMILES) |
| --- | --- | --- | --- | --- | --- |
| 1.73 | 1.31 | 2.12 | 3.51 |  | O=C(c1cnc2c(ccn2-c2ccc(-n3cnnc3)cc2)c1)N1CCC(F)(F)CC1 [Compound B-107] |
| 0.95 | 1.08 | 3.09 | 5.02 | 0.1 to 1 | CN(C)c1nc2ccc(-n3ccc4cc(C(=O)N5CCC(F)(F)CC5)cnc43)cn2n1 [Compound B-102] |
| 1.4 | 2.64 | 2.84 | 4.39 | < 0.1 | CCC1CCCN(C(=O)c2cnc3c(ccn3-c3cncc(NC(=O)OC)c3)c2)C1 (centres unmarked) [Compound B-83] |
| 2.93 | 4.16 | 3.31 | 4.33 | < 0.1 | O=C(c1cnc2c(ccn2-c2cccc(-c3nc[nH]n3)c2)c1)N1CCC(F)(F)CC1 [Compound B-36, (1-(3-(4H-1,2,4-triazol-3-yl)phenyl)-1H-pyrrolo[2,3-b]pyridin-5-yl)(4,4-difluoropiperidin-1-yl)methanone] |
| 0.70 | 4.01 | 4.06 | 3.42 | < 0.1 | O=C(Nc1cncc(-n2ccc3cc(C(=O)N4CCC(F)(F)CC4)cnc32)c1)C1CCCC1 [Compound B-234] |
| 1.57 | 3.31 | 3 | 5.13 | < 0.1 | CNc1nc2ccc(-n3ccc4cc(C(=O)N5CCC(F)(F)CC5)cnc43)cn2n1 [Compound B-89] |
| 0.79 | 1.78 | 4.49 | 5.26 |  | C[C@H]1CCCN(C(=O)c2cnc3c(ccn3-c3cnn(CC(F)(F)F)c3)c2)C1 [Compound B-100] |
| 1.34 | 1.28 | 4.15 | 6.26 |  | Cc1nc2ccc(-n3ccc4cc(C(=O)N5CCC(F)(F)CC5)cnc43)cn2n1 [Compound B-120] |
| 1.63 | 3.57 | 6.46 | 8.32 | < 0.1 | O=C(Nc1cncc(-n2ccc3cc(C(=O)N4CCC(F)(F)CC4)cnc32)c1)C1CCC1 [Compound B-236] |
| 1.94 | 3.38 | 4.02 | 5.76 | < 0.1 | COC(=O)Nc1cncc(-n2ccc3cc(C(=O)N4CCCC(C(F)(F)F)C4)cnc32)c1 (centres unmarked) [Compound B-84] |
| 3.59 | 4.44 | 4.8 | 4.34 | < 0.1 | CCC1CCCN(C(=O)c2cnc3c(ccn3-c3cncc(NC(=O)OC)c3)c2)C1 (stereo in doubt) [Compound B-70, methyl(S)-(5-(5-(3-ethylpiperidine-1-carbonyl)-1H-pyrrolo[2,3-b]pyridin-1-yl)pyridin-3-yl)carbamate] |
| 0.34 | 1.02 | 2.68 | 4.46 | < 0.1 | O=C(Nc1cncc(-n2ccc3cc(C(=O)N4CCC(F)(F)CC4)cnc32)c1)C1CCOCC1 [Compound B-232] |
| 1.48 | 1.55 | 1 | 1.02 |  | O=C(O)c1ccc(-n2ccc3cc(C(=O)N4CCC(F)(F)CC4)cnc32)s1 [Compound B-118] |
| 0.51 | 1.08 | 2.21 | 1.92 | 0.1 to 1 | O=C(c1cnc2c(ccn2-c2ccc(N3CCOC3=O)nc2)c1)N1CCC[C@@H](C(F)(F)F)C1 [Compound B-81] |
| 1.01 | 1.2 | 2.87 | 3.06 |  | O=C(c1cnc2c(ccn2-c2ccc(-c3nc[nH]n3)s2)c1)N1CCC(F)(F)CC1 [Compound B-119] |
| 1.57 | 2.98 | 3.46 | 3.26 |  | C[C@H]1CCCN(C(=O)c2cnc3c(ccn3-c3ccc4nc(N(C)C)nn4c3)c2)C1 [Compound B-108] |
| 4.36 | 3.07 | 4.92 | 5.24 |  | O=C(c1cnc2c(ccn2-c2ccc(N3CCOC3=O)nc2)c1)N1CCCC(F)(F)C1 [Compound B-115] |
| 0.77 | 1.54 | 3.22 | 5.19 | < 0.1 | CCOC(=O)Nc1cc(-n2ccc3cc(C(=O)N4CCC(F)(F)CC4)cnc32)cnc1C [Compound B-96] |
| 1.08 | 2.42 | 4.98 | 5.37 |  | O=C(c1cnc2c(ccn2-c2ccc3nc(N4CCOCC4)nn3c2)c1)N1CCC(F)(F)CC1 [Compound B-97, (4,4-difluoropiperidin-1-yl)(1-(2-morpholino [1,2,4]triazolo [1,5-a]pyridin-6-yl)-1H-pyrrolo [2,3-b]pyridin-5-yl)methanone] |
| 1.15 | 1.34 | 5.1 | 6.3 |  | Cc1cn2cc(-n3ccc4cc(C(=O)N5CCC(F)(F)CC5)cnc43)ccc2n1 [Compound B-103] |
|  | 2.91 and 2.33 | 4.01 and 3.89 | 3.56 and 3.92 | < 0.1 | Cn1cc(C(=O)Nc2cncc(-n3ccc4cc(C(=O)N5CCC(F)(F)CC5)cnc43)c2)cn1 [Compound B-92] |
| 2.23 | 5.78 | 7.25 | 11.1 | < 0.1 | O=C(c1cnc2c(ccn2-c2ccc(N3CCOC3=O)nc2)c1)N1CCCC(C(F)(F)F)C1 (centres unmarked) [Compound B-114] |
| 6.05 | 3.06 | 8.74 | 10.7 | < 0.1 | CCC1CCCN(C(=O)c2cnc3c(ccn3-c3ccc(N4CCOC4=O)nc3)c2)C1 (centres unmarked) [Compound B-113] |
| 2.14 | 3.77 | 3.25 | 4.67 | < 0.1 | CC(C)OC(=O)Nc1cncc(-n2ccc3cc(C(=O)N4CCC(F)(F)CC4)cnc32)c1 [Compound B-88] |
| 2.7 | 5.52 | 5.36 | 4.19 | < 0.1 | COC(=O)Nc1cncc(-n2ccc3cc(C(=O)N4CCCC(F)(F)C4)cnc32)c1 [Compound B-82] |
| 0.90 | 0.81 | 0.86 | 2.8 |  | O=C(c1cnc2c(ccn2-c2ccc(N3C(=O)CCC3=O)cc2)c1)N1CCC(F)(F)CC1 [Compound B-106] |
